Measurements published in publication PMC4098866 (Bioscience Reports, 2012).
Several values for one entry are separate records, joined by “and”; a condition that tells them apart may be missing. Equal entries are not always repeated. Where two headings read alike, the source gives them in different places.

What was measured:
RPSA-(2–209) W176A = RPSA-(2–209) W176A (Mus musculus, UniProt P14206, W176A); assay: Fluorimetric titration of mutant RPSA-; type: binding, murine
RPSA-(2–209) [1] = molecular target: T1, RPSA-(2–209) (Mus musculus, UniProt P14206); assay: Fluorimetric titration of RPSA derivative with EGCG; type: binding, murine
[2] = system: 67LR form of RPSA, purified from human cancer cells; conditions: 25°C, surface plasmon resonance; cited from earlier work
RPSA-(2–295) [3] = molecular target: T2, RPSA-(2–295) (Mus musculus, UniProt P14206); assay: Fluorimetric titration of RPSA derivative with EGCG; type: binding, murine
RPSA-(225–295) [4] = molecular target: T3, RPSA-(225–295) (Mus musculus, UniProt P14206); assay: as above; type: binding, murine; conditions: 25°C
RPSA-(2–209) W195A = RPSA-(2–209) W195A (Mus musculus, UniProt P14206, W195A); assay: Fluorimetric titration of mutant RPSA-; type: binding, murine
N-domain of RPSA = N-domain of RPSA (Mus musculus, UniProt P14206); assay: Summary of ligand binding functions of RPSA domains; parameters: species or system murine; conditions: read-out: KD (dissociation constants), N-domain; rounded value of the Abstract
RPSA-(210–295) [5] = molecular target: T4, RPSA-(210–295) (Mus musculus, UniProt P14206); assay: Fluorimetric titration of RPSA derivative with EGCG; type: binding, murine; conditions: 25°C
RPSA-(2–220) [6] = molecular target: T5, RPSA-(2–220) (Mus musculus, UniProt P14206); assay: as above; type: binding, murine; conditions: read-out: KD(EGCG); 25°C, PBS, equilibrium in solution, spectrofluorimetry
[7] = molecular target: capture of laminin by immobilized RPSA-(2–220) (Mus musculus, UniProt P14206); type: binding, murine; conditions: EC50 smaller than K1/2
RPSA-(2–295) [8] = molecular target: T2, RPSA-(2–295); assay: Indirect ELISA, capture of heparin by immobilized RPSA derivative; type: binding, murine; conditions: 25°C
[9] = molecular target: interaction between RPSA-(225–295) and laminin (Mus musculus, UniProt P02468+P02469+P19137); assay: Competition ELISA, inhibition constant Ki of heparin; type: binding, murine; conditions: read-out: constant of inhibition (Ki); 25°C, buffer C, laminin 5 μg/ml, immobilized RPSA-(225–295)
RPSA-(210–295) [10] = molecular target: T4, RPSA-(210–295); assay: Indirect ELISA, capture of heparin by immobilized RPSA derivative; type: binding, murine; conditions: 25°C
RPSA-(2–209) [11] = molecular target: T1, RPSA-(2–209); assay: as above; type: binding, murine; conditions: 25°C, half-saturation
RPSA-(225–295) [12] = molecular target: T3, RPSA-(225–295); assay: as above; type: binding, murine; conditions: 25°C
RPSA-(2–220) [13] = molecular target: T5, RPSA-(2–220); assay: as above; type: binding, murine; conditions: 25°C, half-saturation, listed as Heparin
RPSA-(2–209) [14] = molecular target: T1, RPSA-(2–209); assay: Competition ELISA, KD between laminin and RPSA derivative; type: binding, murine; conditions: read-out: KD(Laminin), 25°C, buffer C, equilibrium in solution
RPSA-(210–295) [15] = molecular target: T4, RPSA-(210–295); assay: as above; type: binding, murine; conditions: read-out: KD(Laminin), 25°C, buffer C, equilibrium in solution
RPSA 1–295 = conditions: 1–295, E. coli, native, Ind. ELISA, 37 °C; cited from earlier work
RPSA 1–220 = conditions: 1–220, E. coli, native, Ind. ELISA, 37 °C; cited from earlier work
RPSA-(225–295) [16] = molecular target: T3, RPSA-(225–295); assay: Competition ELISA, KD between laminin and RPSA derivative; type: binding, murine; conditions: read-out: KD(Laminin), 25°C, buffer C, equilibrium in solution
RPSA-(2–295) [17] = molecular target: T2, RPSA-(2–295); assay: as above; type: binding, murine
[18] = molecular target: RPSA 161–180 (synthetic peptide G); conditions: SPRadio-L, 4 °C; cited from earlier work
C-domain of RPSA = C-domain of RPSA (Mus musculus, UniProt P14206); assay: Summary of ligand binding functions of RPSA domains; parameters: species or system murine; conditions: read-out: KD (dissociation constants), C-domain; rounded value of the Abstract
RPSA-(2–220) [19] = molecular target: T5, RPSA-(2–220); assay: Competition ELISA, KD between laminin and RPSA derivative; type: binding, murine; conditions: read-out: KD(Laminin), 25°C, buffer C, equilibrium in solution
67LR = conditions: cell membrane, denatured, SPRadio-L, cited from earlier work
[20] = read-out: KD(EGCG), 25°C, PBS, equilibrium in solution, spectrofluorimetry
[21] = uncorrected fluorescence, consistent with tryptophanamide control

O=C(O[C@@H]1Cc2c(O)cc(O)cc2O[C@@H]1c1cc(O)c(O)c(O)c1)c1cc(O)c(O)c(O)c1 [EGCG, (−)-epigallocatechin-3-gallate]
decrease of free energy of interaction (ΔΔG) with EGCG (RPSA-(2–209) W176A; W176A vs parental RPSA-(2–209)): 0.4 ± 0.1 kcal/mol | Kd (RPSA-(2–209) W176A; read-out: KD (EGCG), 25°C, W176A mutant of RPSA-(2–209)): 186 ± 42 nM | KD of EGCG with RPSA-(2–209) relative to literature KD with 67LR (RPSA-(2–209) [1]; higher than 39.9 nM of ref 46): 2.5 fold | Kd (RPSA-(2–209) [1]; [20]): 99 ± 7 nM | KD (EGCG and 67LR), ratio kd/ka [2]: 39.9 nM | KD of EGCG, full-length RPSA-(2–295) relative to N-domain (RPSA-(2–295) [3]; higher for full-length): 4 fold | Kd (RPSA-(2–295) [3]; [20]): 399 ± 101 nM | EGCG binding (in words) (RPSA-(225–295) [4]; spectrofluorimetry): did not bind | [EGCG]1/2 (concentration of half-absorption, Beer's law fitted to F) (RPSA-(225–295) [4]; [21]): 43 µM | decrease of free energy of interaction (ΔΔG) with EGCG (RPSA-(2–209) W195A; W195A vs parental RPSA-(2–209)): 0.4 ± 0.1 kcal/mol | Kd (RPSA-(2–209) W195A; read-out: KD (EGCG), 25°C, W195A mutant of RPSA-(2–209)): 196 ± 54 nM | Kd (N-domain of RPSA): 100 nM | EGCG binding (in words) (RPSA-(210–295) [5]; spectrofluorimetry): did not bind | [EGCG]1/2 (concentration of half-absorption, Beer's law fitted to F) (RPSA-(210–295) [5]; [21]): 48 µM | Kd (RPSA-(2–220) [6]): 130 ± 37 nM

heparin sodium salt
EC50 relative to K1/2 of heparin for RPSA-(2–220) [7]: 130 fold | heparin binding (in words) (RPSA-(2–295) [8]): did not bind | K1/2(Heparin) (RPSA-(2–295) [8]; half-saturation): ≫4 μM | Ki [9]: 16.1 ± 0.7 nM | heparin binding (in words) (RPSA-(210–295) [10]): did not bind | K1/2(Heparin) (RPSA-(210–295) [10]; half-saturation): ≫2 μM | K1/2(Heparin) (RPSA-(2–209) [11]): 1.43 µM | K1/2(Heparin) (RPSA-(2–209) [11]; listed as Heparin): 1.43 ± 0.06 µM | heparin binding (in words) (RPSA-(225–295) [12]): did not bind | K1/2(Heparin) (RPSA-(225–295) [12]; half-saturation): ≫2 μM | K1/2(Heparin) (RPSA-(2–220) [13]): 4.4 µM and 4.36 ± 0.28 µM

laminin: laminin from mouse EHS (Engelbreth-Holm-Swarm) sarcoma, component of the extracellular matrix
Kd (RPSA-(2–209) [14]): 273 ± 37 nM | Kd (RPSA-(210–295) [15]): 374 ± 54 nM | Kd (RPSA 1–295): 700 nM | Kd (RPSA 1–220): 1700 nM | Kd (N-domain of RPSA): 300 nM | Kd (RPSA-(225–295) [16]): 344 ± 50 nM | KD of laminin, full-length RPSA-(2–295) relative to N- or C-domain (RPSA-(2–295) [17]; higher for full-length): 2 fold | Kd (RPSA-(2–295) [17]; read-out: KD(Laminin), 25°C, buffer C, equilibrium in solution, competition ELISA): 666 ± 33 nM | Kd [18]: 52 nM | Kd (C-domain of RPSA): 300 nM | Kd (RPSA-(2–220) [19]): 691 ± 98 nM | Kd (67LR; 4 °C): 2 nM | Kd (67LR; 20 °C): 2 nM
